For series [1] the following is noted: buffer, pH 7.4.
The test system of series [2] is Yeast ALDH (E.C. 1.2.1.5). Kind of series: In vitro inhibition of yeast ALDH. The series is classed as biochemical. The settings on record: for IC50: read-out: ALDH inhibition IC50, 37 °C preincubation; for time to complete inhibition of ALDH: inhibitor at ten-fold the IC50.
Series [3] in a line: UV-Vis spectroscopy assay for decomposition in buffer. Particulars: no PLE.
The target of another series is oxymyoglobin (MbO2) (Equus caballus, UniProt P68082). In words: UV-vis assay of metMb formation from MbO2. It is filed as biochemical.
Chain of oxymyoglobin (MbO2) (P68082 whole entry): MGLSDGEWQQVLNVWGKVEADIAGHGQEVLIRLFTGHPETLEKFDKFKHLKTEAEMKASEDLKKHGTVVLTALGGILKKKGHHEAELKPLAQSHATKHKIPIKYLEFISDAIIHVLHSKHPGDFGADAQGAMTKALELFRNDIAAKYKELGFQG
Series [4] addresses ALDH peptide A286-R307 (AIDWIAAGIFYLNSGQNCTANSR) (Saccharomyces cerevisiae, UniProt P47771). In words: LC-MS reactivity with ALDH peptide A286-R307.
The test system of series [5] is Yeast ALDH (E.C. 1.2.1.5). In words: In vitro reactivation of inhibited yeast ALDH by DTT. The series is classed as biochemical. Particulars: inhibitor at ten-times IC50, DTT 10 mM.
Series [6] has as its system Yeast ALDH (E.C. 1.2.1.5). The settings on record: read-out: ALDH inhibition, reported IC50; ref [24], [25]; cited from earlier work.
The conditions of series [7]: buffer; cited from earlier work.
The nature of series [8]: Water solubility in buffer. The series is classed as physicochemical.
The mark [9] stands for this setting: 10 eq. reagent, peptide 10 μM, no PLE, room temperature.

“Also recorded” adds a separate entry of the source. Read-outs that look alike come from different tables or passages of the source.

We go through six molecules from paper PMC3518590 (Journal of inorganic biochemistry, 2012).

Chain of UniProt P47771 (P47771 286-307): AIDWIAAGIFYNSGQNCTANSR

As for “4-Nitrosotetrahydro-2H-pyran-4-yl Pivalate [compound 5]”, the “decomposition t1/2” value in series [1] stood at 32 h. Besides, the 50% inhibitory concentration (IC50) in series [2] (absence of PLE) turned out to be 3300 nM; in series [2] (presence of PLE (9 U/μmol)), 3500 nM. In [3] (3 % mixture of DMF:PBS (100 mM, pH 7.4), 37 °C), the “decomposition rate constant k” value is 6e-06 s⁻¹. In addition, on oxymyoglobin (MbO2) (MbO2 42 μM, compound 84 μM, PLE 9 U/μmol, PBS pH 7.4, 37 °C), the “rate constant of MbO2 conversion to metMb” value is 0.0003 s⁻¹. Moreover, at oxymyoglobin (MbO2) (absence of PLE), the “reaction with MbO2 (absorption spectra)” value is given as “no change in the absorption spectra”. In addition, the “Product(s) of reaction with ALDH peptide” value is “RSSR and sulfinamide” in series [4] (10 eq. reagent + PLE (9 U/μmol), room temperature); “RSSR” in [4] (setting [9]). Also, the “ALDH enzyme activity restored by DTT” value in series [5] (in the presence of PLE) is reported as 43%; in [5] (no PLE) it was 63%.

Turning to `[Na+].[Na+].[O-][N+]([O-])=NO` [AS, Angeli’s salt (NaN2O3, AS)], the “time to complete inhibition of ALDH” value in series [2] is recorded as not above 10 min. In addition, the results for the half-inhibitory concentration (IC50) in series [2] (absence of PLE) and in series [6] were 2100 nM and 1800 nM, respectively. Further, the results for the “Product(s) of reaction with ALDH peptide” value in [4] (setting [9]) and in series [4] (1000 eq. reagent) were “sulfinamide-minor; also recorded: dhA -major” and “sulfinamide”, respectively. In addition, in [5] (no PLE), the “ALDH enzyme activity restored by DTT” value is listed as 46%.

Regarding `O=Nc1ccccc1` [NB, Nitrosobenzene], in [2], the “time to complete inhibition of ALDH” value is listed as not above 10 min. The half-maximal inhibitory concentration (IC50) was 200 nM in series [2] (absence of PLE) and 2500 nM in series [6]. Besides, in series [4] (setting [9]), the “Product(s) of reaction with ALDH peptide” value is “N-phenyl sulfinamide”. Also, the “ALDH enzyme activity restored by DTT” value in [5] (no PLE) came to 15%.

With `CC(=O)OC1(N=O)CCCCC1` [compound 1], the “decomposition t1/2 (comparison value)” value in series [7] was 14.8 h.

As to `CC(C)(C)C(=O)OC1(N=O)CCCCC1` [compound 2], in series [7], the “decomposition t1/2 (comparison value)” value was 37.8 h.

Take `CC(=O)OC1(N=O)CCOCC1` [compound 4, 4-Nitrosotetrahydro-2H-pyran-4-yl Acetate]: the “decomposition rate constant k” value in series [3] (buffered conditions, PBS 100 mM pH 7.4, 37 °C) is 3e-05 s⁻¹. The molecule also returned a solubility in series [8] of 1700 µM.

Broadly, the IC50 is the point on the concentration scale where inhibition reaches its midpoint. Broadly, the solubility is the concentration that dissolves in the medium under given conditions. A low value points to a poorly soluble substance.
